Earlier results in patent US6713069B1, “Compositions and methods for detecting, preventing, and treating African Hemorrhagic Fever” (Board of Supervisors of Louisiana State University and …, priority 1996, dated 2004).

Tested on: HIV

## enfuvirtide
  inhibition of HIV infection and fusion: inhibit HIV infection and fusion at very low dosages
